The source of these data is patent publication US12102630B2 (Synthon B.V., priority 2018, dated 2024).

The nature of the data set: gel formation in contact with water / dissolution media. In kind it is physicochemical. The conditions noted are these: solid forms. The source says: The marketed product comprises lenvatinib mesylate. It is known that the lenvatinib mesylate salt gelifies when in contact with dissolution media, this may cause a delay in its release. EP1797881 discloses a pharmaceutical composition that solved the above problems using an alkaline excipient with a pH of 8 a 5% w/w aqueous solution to reduce the degradation of the active substance and silicic acid to inhibit gelation. Sodium carbonates are described as suitable alkaline excipient.
Gelification limits the dissolution of API and can influence bioavailability of the drug.

With lenvatinib besylate, the “tendency to form a gel when in contact with water” value is “don't tend to form a gel”.
